Experimental data published in paper PMC8617031, “Development of a BCL-xL and BCL-2 dual degrader with improved anti-leukemic activity,” (Nature Communications, 2021).
Values joined by “and” are separate entries in the source; they are usually repeats but may differ in a detail not shown here. Identical values can stand only once.

How the values were obtained:
[1] = test system: BCL-2/PROTAC/VCB ternary complex (HiBit-BCL-2, HaloTag-VHL); assay: NanoBRET intracellular ternary complex formation in 293T cells, BCL-2; type: cell-based, human; details: for nanoBRET ratio (610/450, background-subtracted), Ave, Bcl-2: Ave of Read2 and Read3; for nanoBRET ratio (610/450, background-subtracted), Ave, Bcl-2 / nanoBRET ratio (610/450, background-subtracted), Read2, Bcl-2 / nanoBRET ratio (610/450, background-subtracted), Read3, Bcl-2: triplicate wells
In short: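 293T cells were transfected with HiBit-BCL-xL or HiBit-BCL-2 plus HaloTag-VHL and incubated overnight with or without HaloTag NanoBRET 618 ligand in 4% FBS Opti-MEM. Serially diluted compounds were applied for 6 h at 37 °C. mBRET ratio from donor emission (450/50 nm) and acceptor emission (610 nm longpass) after Nano-Glo substrate.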

[2] = molecular target: T1, BCL-xL (Homo sapiens, UniProt Q07817); assay: BCL-xL degradation by immunoblot in Kasumi-1 cells; type: cell-based; details: Fig. 7b; for BCL-xL level, bar graph (0 = 100): two replicate columns
T1 construct: endogenous in cells
T1 sequence (Q07817 whole entry): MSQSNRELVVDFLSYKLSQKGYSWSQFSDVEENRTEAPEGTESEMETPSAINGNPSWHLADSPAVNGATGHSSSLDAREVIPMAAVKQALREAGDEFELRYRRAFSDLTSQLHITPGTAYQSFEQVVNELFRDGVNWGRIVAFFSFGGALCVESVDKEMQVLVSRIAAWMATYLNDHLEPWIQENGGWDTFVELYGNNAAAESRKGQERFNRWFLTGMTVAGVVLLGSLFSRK
Method: (§1) Tubulin was used as an equal loading control. […] For the viability assays, the data are presented as mean ± s.d. from three replicate cell cultures in a representative experiment. Similar results were also observed in two additional independent experiments. d Representative immunoblot analyses of Kasumi-1 cells 16 h after treatment as indicated. […] Data are representative of two independent experiments. The dotted line represents the value from DMSO-treated cells. Source data are provided as a Source data file.
(§2) Cells were collected, washed once with ice-cold phosphate-buffered saline, pH 7.2 (PBS, cat. no. 20012027; Thermo Fisher Scientific) and lysed in RIPA lysis buffer (Cat. No. BP-115DG, Boston Bio Products, Ashland, MA, USA) supplemented with protease and phosphatase inhibitor cocktails (Cat. No. PPC1010, Sigma-Aldrich, St. Louis, MO, USA) through sonication. The samples were centrifuged at 14,000 r.p.m. for 5 min and the supernatants were transferred into a new tube. The protein concentration in the supernatants was determined using the Pierce BCA protein Assay kit (cat. no. 23225, Thermo Fisher Scientific). The protein concentration was normalized, and the samples were reduced in 4× Laemmli’s SDS-sample buffer (cat. no. BP-110R, Boston Bio Products) and denatured at 95 °C for 5 min. An equal amount of protein samples (20–40 μg per lane) were resolved using precast 4–20% Tris-glycine gels (Mini-PROTEAN TGX, cat. no. 456–1094, Bio-Rad), and resolved proteins were transferred onto 0.2-µm pore size polyvinylidene difluoride (PVDF) blotting membranes (cat. no. LC2002, Thermo Fisher Scientific) using mini trans-blot electrophoretic transfer cell (Bio-Rad). The membranes were blocked with non-fat dry milk (5% wt/vol) in 1× Tris-buffered saline-Tween-20 (TBST, cat. no. J77500, Affymetrix) for 1 h at room temperature, and were subsequently probed with primary antibodies at a predetermined optimal concentration in non-fat dry milk (5% wt/vol in TBST) overnight at 4 °C. The membranes were washed three times (5 min each) in TBST and then incubated with horse radish peroxidase (HRP)-conjugated secondary antibodies for 1 h at room temperature. Following sufficient washing with TBST, the membranes were exposed with chemiluminescent HRP substrate (cat. no. WBKLS0500, MilliporeSigma), and the signal was detected using the ChemiDoc MP Imaging System (Bio-Rad) and quantified using the ImageJ (v1.53a) software from NIH.

[3] = molecular target: T2, BCL-2 (Homo sapiens, UniProt P10415); assay: BCL-2 degradation by immunoblot in Kasumi-1 cells; type: cell-based; details: Fig. 7b; for BCL-2 level, bar graph (0 = 100): two replicate columns
T2 construct: endogenous in cells
T2 sequence (P10415 whole entry): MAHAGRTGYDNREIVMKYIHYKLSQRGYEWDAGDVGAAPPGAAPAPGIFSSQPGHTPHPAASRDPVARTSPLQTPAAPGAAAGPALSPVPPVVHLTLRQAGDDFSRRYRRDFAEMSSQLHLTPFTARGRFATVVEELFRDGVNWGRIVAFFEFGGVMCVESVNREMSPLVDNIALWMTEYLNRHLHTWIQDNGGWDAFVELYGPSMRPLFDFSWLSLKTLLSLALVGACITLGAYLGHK
Method: as §1, §2

Row | SMILES | nanoBRET ratio (610/450, background-subtracted), Ave, Bcl-2 ([1]; 0.004 uM) | nanoBRET ratio (610/450, background-subtracted), Read2, Bcl-2 ([1]; 0.004 uM) | nanoBRET ratio (610/450, background-subtracted), Read3, Bcl-2 ([1]; 0.004 uM) | nanoBRET ratio (610/450, background-subtracted), Ave, Bcl-2 ([1]; 0.012 uM) | nanoBRET ratio (610/450, background-subtracted), Read2, Bcl-2 ([1]; 0.012 uM) | nanoBRET ratio (610/450, background-subtracted), Read3, Bcl-2 ([1]; 0.012 uM) | nanoBRET ratio (610/450, background-subtracted), Ave, Bcl-2 ([1]; 0.111 uM) | nanoBRET ratio (610/450, background-subtracted), Read2, Bcl-2 ([1]; 0.111 uM) | nanoBRET ratio (610/450, background-subtracted), Read3, Bcl-2 ([1]; 0.111 uM) | nanoBRET ratio (610/450, background-subtracted), Ave, Bcl-2 ([1]; 0.333 uM) | nanoBRET ratio (610/450, background-subtracted), Read2, Bcl-2 ([1]; 0.333 uM) | nanoBRET ratio (610/450, background-subtracted), Read3, Bcl-2 ([1]; 0.333 uM) | nanoBRET ratio (610/450, background-subtracted), Ave, Bcl-2 ([1]; 1 uM) | nanoBRET ratio (610/450, background-subtracted), Read2, Bcl-2 ([1]; 1 uM) | nanoBRET ratio (610/450, background-subtracted), Read3, Bcl-2 ([1]; 1 uM) | nanoBRET ratio (610/450, background-subtracted), Ave, Bcl-2 ([1]; 3 uM) | nanoBRET ratio (610/450, background-subtracted), Read2, Bcl-2 ([1]; 3 uM) | nanoBRET ratio (610/450, background-subtracted), Read3, Bcl-2 ([1]; 3 uM) | BCL-xL level, bar graph (0 = 100) ([2]; concentration 0.01) | BCL-xL level, bar graph (0 = 100) ([2]; concentration 0.03) | also measured
1 | Cc1ncsc1-c1ccc([C@H](C)NC(=O)[C@@H]2C[C@@H](O)CN2C(=O)[C@@H](NC(=O)CCCCCCC(=O)N2CCN(C[C@@]3(C)CCC(c4ccc(Cl)cc4)=C(CN4CCN(c5ccc(C(=O)NS(=O)(=O)c6ccc(N[C@H](CCN7CCOCC7)CSc7ccccc7)c(S(=O)(=O)C(F)(F)F)c6)cc5)CC4)C3)CC2)C(C)(C)C)cc1 [753a] | 3.986 and 4.005 and 4.171 | 4.213 and 3.959 and 4.208 | 3.759 and 4.052 and 4.1349 | 3.935 and 4.221 and 4.234 | 4.374 and 4.4563 and 4.486 | 3.4969 and 3.9866 and 3.982 | 5.182 and 5.692 and 5.227 | 5.4197 and 6.174 and 5.638 | 4.944 and 5.21 and 4.816 | 5.936 and 5.165 and 5.723 | 6.144 and 5.244 and 5.817 | 5.728 and 5.085 and 5.6284 | 4.911 and 5.007 and 4.802 | 5.2892 and 5.222 and 5.13 | 4.533 and 4.7919 and 4.4737 | 5.075 and 4.7947 and 5.072 | 5.352 and 5.171 and 5.538 | 4.798 and 4.419 and 4.6068 | – | – | –
2 | Cc1ncsc1-c1ccc([C@H](C)NC(=O)[C@@H]2C[C@@H](O)CN2C(=O)[C@@H](NC(=O)CCCCCCC(=O)N2CCN(C[C@]3(C)CCC(c4ccc(Cl)cc4)=C(CN4CCN(c5ccc(C(=O)NS(=O)(=O)c6ccc(N[C@H](CCN7CCOCC7)CSc7ccccc7)c(S(=O)(=O)C(F)(F)F)c6)cc5)CC4)C3)CC2)C(C)(C)C)cc1 [753b] | 4.377 and 3.959 and 4.565 | 4.539 and 4.475 and 4.818 | 4.215 and 3.442 and 4.311 | 5.266 and 5.391 and 5.383 | 5.627 and 5.5043 and 5.572 | 4.906 and 5.278 and 5.194 | 8.153 and 8.77 and 8.375 | 8.4844 and 9.173 and 8.444 | 7.821 and 8.367 and 8.306 | 10.2466 and 9.352 and 9.108 | 10.4847 and 9.4698 and 9.325 | 10.0085 and 9.234 and 8.89 | 9.221 and 9.808 and 9.597 | 8.91 and 9.99 and 9.879 | 9.531 and 9.627 and 9.314 | 10.0388 and 9.727 and 10.2545 | 10.3731 and 9.71 and 10.9724 | 9.704 and 9.745 and 9.537 | 38 and 35 | 15 and 18 | BCL-xL degradation in Kasumi-1 cells (in words) ([2]; Kasumi-1 cells, 16 h, compared with DT2216): more potent BCL-xL degradation; BCL-xL level, bar graph (0 = 100) ([2]; concentration 0.1): 8 and 6; BCL-xL level, bar graph (0 = 100) ([2]; concentration 0.3): 7 and 5; BCL-xL level, bar graph (0 = 100) ([2]; concentration 1): 6 and 5; BCL-2 degradation in Kasumi-1 cells (in words) ([3]; Kasumi-1 cells, 16 h): could also degrade BCL-2; BCL-2 level, bar graph (0 = 100) ([3]; concentration 0.01): 66 and 60; BCL-2 level, bar graph (0 = 100) ([3]; concentration 0.03): 44 and 48; BCL-2 level, bar graph (0 = 100) ([3]; concentration 0.1): 36 and 21; BCL-2 level, bar graph (0 = 100) ([3]; concentration 0.3): 32 and 26; BCL-2 level, bar graph (0 = 100) ([3]; concentration 1): 36 and 25; intracellular ternary complex formation with BCL-2 (in words) ([1]; NanoBRET, 293T cells, 6 h): much higher activity to induce the ternary complex formation with both BCL-xL and BCL-2 relative to 753a
3 | Cc1ncsc1-c1ccc([C@H](C)NC(=O)[C@@H]2C[C@@H](O)CN2C(=O)[C@@H](NC(=O)CCCCCC(=O)N2CCN(CC[C@H](CSc3ccccc3)Nc3ccc(S(=O)(=O)NC(=O)c4ccc(N5CCN(CC6=C(c7ccc(Cl)cc7)CCC(C)(C)C6)CC5)cc4)cc3S(=O)(=O)C(F)(F)F)CC2)C(C)(C)C)cc1 [DT2216] | – | – | – | – | – | – | – | – | – | – | – | – | – | – | – | – | – | – | 86 and 92 | 59 and 63 | BCL-xL level, bar graph (0 = 100) ([2]; concentration 0.1): 38 and 33; BCL-xL level, bar graph (0 = 100) ([2]; concentration 0.3): 22 and 25; BCL-xL level, bar graph (0 = 100) ([2]; concentration 1): 11 and 12; BCL-2 level, bar graph (0 = 100) ([3]; concentration 0.01): 96 and 105; BCL-2 level, bar graph (0 = 100) ([3]; concentration 0.03): 90 and 102; BCL-2 level, bar graph (0 = 100) ([3]; concentration 0.1): 92 and 98; BCL-2 level, bar graph (0 = 100) ([3]; concentration 0.3): 91 and 99; BCL-2 level, bar graph (0 = 100) ([3]; concentration 1): 80 and 89
